# Literature values in patent US20050260263A1, “Sustained release formulation for sparingly soluble main drugs” (Panion & BF Biotech Inc., priority 2004, published 2005).
# Read-outs that look alike come from different tables or passages of the source.
Compound,Solubility (water),Solubility (gastric fluid),Solubility (region of the lower intestine (pH 6 to 8)),Solubility (upper region of the small intestine (pH 5.0))
CC[C@H]1OC(=O)[C@H](C)[C@@H](O[C@H]2C[C@@](C)(OC)[C@@H](O)[C@H](C)O2)[C@H](C)[C@@H](O[C@@H]2O[C@H](C)C[C@H](N(C)C)[C@H]2O)[C@](C)(O)C[C@@H](C)C(=O)[C@H](C)[C@@H](O)[C@]1(C)O [Erythromycin],only slightly soluble,,,
CC[C@H]1OC(=O)[C@H](C)[C@@H](O[C@H]2C[C@@](C)(OC)[C@@H](O)[C@H](C)O2)[C@H](C)[C@@H](O[C@@H]2O[C@H](C)C[C@H](N(C)C)[C@H]2O)[C@](C)(OC)C[C@@H](C)C(=O)[C@H](C)[C@@H](O)[C@]1(C)O [clarithromycin],,very soluble,poorly soluble,fairly soluble
